Measured values taken from patent publication US11400107B2, “Cancer treatments” (NuCana plc, priority 2016, dated 2022).
“Also recorded” adds a separate entry of the source.

How the values were obtained:
Format in all cases: cell-based, human
[1] = tested on: KG1a cells; test: In vitro apoptosis / LD50 assay (Annexin V) in KG1a cells; details: for LD50: KG1a cells (FIG. 7A), 72 h
Method: The acute myeloid leukaemia (AML) KG1a cell line was maintained in RPMI medium (Invitrogen, Paisley, UK) supplemented with 100 units/ml penicillin, 100 μg/ml streptomycin and 20% fetal calf serum. Cells were subsequently aliquoted (10^5 cells/100 μl) into 96-well plates and were incubated at 37° C. in a humidified 5% carbon dioxide atmosphere for 72 h in the presence of NUC-1031 or gemcitabine at concentrations that were experimentally determined for each compound. In addition, control cultures were carried out to which no drug was added. Cells were subsequently harvested by centrifugation and were analysed by flow cytometry using the Annexin V assay.
Cultured cells were harvested by centrifugation and then resuspended in 195 μl of calcium-rich buffer. Subsequently, 5 μl of Annexin V (Caltag Medsystems, Botolph Claydon, UK) was added to the cell suspension and cells were incubated in the dark for 10 mins prior to washing. Cells were finally resuspended in 190 μl of calcium-rich buffer together with 10 μl of propidium iodide. Apoptosis was assessed by dual-colour immunofluorescent flow cytometry as described previously. Subsequently LD50 values (the dose required to kill 50% of the cells in a culture) were calculated for each nucleoside analogue and ProTide.
(§1) The data obtained in these experiments were evaluated using one way ANOVA. All data was confirmed as Gaussian or a Gaussian approximation using the omnibus K2 test. LD50 values were calculated from the non-linear regression and line of best-fit analysis of the sigmoidal dose-response curves. All statistical analyses were performed using Graphpad Prism 6.0 software (Graphpad Software Inc., San Diego, Calif.).

[2] = tested on: Lin^−/CD34^+/CD38^−/CD123^+ cancer stem cells in KG1a cells; test: Immunophenotypic quantification of the leukaemic stem cell compartment in KG1a cells; details: for proportion of cancer stem cells as compared to non-stem cancer cells after treatment: 72 h; for selectivity for cancer stem cells as opposed to non-stem cancer cells (summary): summary statement of the description
Method: The respective abilities of NUC-1031 and gemcitabine to target CSCs were investigated in the AML cell line KG1a.
KG1a cells were cultured for 72 hours in the presence of a wide range of concentrations of each nucleoside analogue and their respective ProTides. Cells were then harvested and labelled with a cocktail of anti-lineage antibodies (PE-cy7), anti-CD34 (FITC), anti-CD38 (PE) and anti-CD123 (PERCP cy5). The sub-population expressing a leukaemic stem cell (LSC) phenotype were subsequently identified and were expressed as a percentage of all viable cells left in the culture. The percentages of stem cells remaining were then plotted on a dose-response graph and the proportion of cancer stem cells was compared across the various concentrations of ProTides and their respective parent compounds, in order to determine if they preferentially target cancer stem cells.
as §1

[3] = tested on: primary acute myeloid leukaemia (AML) blasts; test: In vitro cytotoxicity assay (LD50) in primary acute myeloid leukaemia cells; details: for LD50: primary AML blasts, 48 h, concentration required to kill 50% of the tumour cells in culture; for potency as compared to the respective parent compound (summary): summary statement of the description
Method: ProTide compounds, as defined herein, and the comparator ProTide compound NUC-1031 were assayed for their cytotoxic effects on primary cultures of acute myeloid leukaemia (AML) blasts. LD50 values (the concentration required to kill 50% of the tumour cells in culture) were calculated in respect of the ProTide compounds of the invention, and the parent compounds from which they are derived. […] The LD50 values of the ProTide compounds as defined herein (and their parent compounds) were compared with the comparator ProTide NUC-1031 and its parent compound gemcitabine.
Bone marrow samples were collected in ethylenediaminetetraacetic acid (EDTA) from newly diagnosed, previously untreated, acute myeloid leukaemia (AML) patients. AML blasts were enriched by density gradient centrifugation using Histopaque (Sigma, Poole, UK) and were subsequently maintained in Roswell Park Memorial Institute medium (RPMI) supplemented with 10% foetal bovine serum (FBS). Cells were treated with ProTide compounds (either as encompassed by the present invention, or the comparator ProTide NUC-1031) or with the ProTides' parent compounds at a range of experimental concentrations, and incubated for 48 h. All cultures were maintained at 37° C. in a 5% CO2 humidified atmosphere.
Cells were harvested and labelled with CD34-fluorescein isothiocyanate (FITC) (BD Biosciences, Buckingham, UK) and then resuspended in 200 μl of binding buffer containing 4 μl of annexin V labelled with allophycocyanin (APC) (eBioscience Ltd, Hatfield, UK). Apoptosis was quantified in the CD34^+ AML cells using an Accuri C6 flow cytometer (Becton Dickinson, CA, USA). At least 10,000 events were acquired and data were subsequently analysed using FlowJo software (Tree Star Inc., Ashland, Oreg., USA). All LD50 values (concentration of drug required to kill 50% of cells) were derived from the dose-response curves.

| SMILES | LD50 [1] | potency relative to FUDR (times more potent) ([1]; from LD50 values) | low concentration at which the selective reduction of cancer stem cells was still observed ([2]; KG1a cells) | proportion of cancer stem cells as compared to non-stem cancer cells after treatment ([2]; KG1a cells) | selectivity for cancer stem cells as opposed to non-stem cancer cells (summary) [2] | LD50 [3] | potency as compared to the respective parent compound (summary) [3] | selectivity against cancer stem cells compared to the parent compound ([2]; KG1a cells) |
| --- | --- | --- | --- | --- | --- | --- | --- | --- |
| CCCCCOC(=O)[C@H](C)NP(=O)(OC[C@H]1O[C@@H](n2cc(F)c(=O)[nH]c2=O)CC1O)Oc1cccc2ccccc12 (stereo partly drawn) [CPF-581] | 0.027 µM | over 50 times | approximately 8×10^−8 M | reduction in the proportion of cancer stem cells | selectively target for cancer stem cells; also recorded: high selectivity for cancer stem cells | CPF 581 0.027 μM | greater potency | – |
| C[C@H](NP(=O)(OC[C@H]1O[C@@H](n2cnc3c(=S)[nH]c(N)nc32)[C@@H](O)C1O)Oc1ccccc1)C(=O)OCc1ccccc1 (stereo partly drawn) [CPF-782] | – | – | – | strong reduction in the proportion of cancer stem cells | selectively target for cancer stem cells; also recorded: high selectivity for cancer stem cells | CPF 782 0.82 μM | greater potency | most selective; also recorded: statistically significant increases in selectivity at certain concentrations |
| O=c1[nH]c(=O)n([C@H]2C[C@H](O)[C@@H](CO)O2)cc1F [FUDR] | 1.18 µM | – | – | reduction in the proportion of cancer stem cells | – | FUDR 1.18 μM | – | – |
